Key:
[1] = test system: IC1 M. tuberculosis MDR clinical isolate; assay: REMA MIC90, broad spectrum of microorganisms; format: cell-based; details: Mycobacterium tuberculosis, read-out: MIC to Compound 2
[2] = test system: IC2 M. tuberculosis MDR clinical isolate; assay: REMA MIC90, broad spectrum of microorganisms; format: cell-based; details: Mycobacterium tuberculosis, read-out: MIC to Compound 2

With `CCOC(=O)c1ccc([S-])[n+]([O-])c1.[Na+]` [Compound 2, Sodium 5-(ethoxycarbonyl)pyridine-2-thiolate 1-oxide] as the molecule, how does the MIC [1] read?
Its MIC is 25 µg/mL.

And the MIC [2]?
Its MIC is 25 µg/mL.
